system: P. putida KT2440; experiment: microbe, parasite or virus in culture; type: cell-based; conditions: Pseudomonas putida, KT2440
Description: Toxicity of the TC wastewater streams and toxic compounds present in FPS were evaluated in microplate growth assays performed in a Bioscreen C MBR analyzer (Growth Curves US, Piscataway, N.J.). Pre-cultures of the strains were prepared by inoculating 25 mL M9 medium supplemented with 20 mM glucose in a 125 mL baffled flask to an OD600 of 0.05-0.1 and incubating shaking at 225 rpm, 30° C. At mid log phase (OD600 0.5-1.0), cells were harvested by centrifugation at 13,000 rpm, and the cell pellets were washed twice and resuspended in M9 medium without a carbon source. These resuspended cells were used to inoculate microplate wells containing 200 μL of M9 medium supplemented with 20 mM glucose and various concentrations of TC wastewater streams or their components to OD600 0.1. Microplates were then incubated at 30° C. with maximum shaking and growth was measured by reading the absorbance (OD420-580) every 30 minutes. Growth rates were calculated according to the growth curve equation.
The compounds present in the FPF stream were classified according to chemical functionality, aldehydes, ketones, phenolics, or acids, and the growth rate of P. putida was evaluated against each class of compounds.

| SMILES | EC50 [mM] |
| --- | --- |
| C=CC(=O)O [Acrylic acid] | 11.7 |
| Oc1ccccc1O [Catechol] | 42.4 |
| CC=O [Acetaldehyde] | 16.2 |
| CC(=O)CCO [Methylolacetone] | 28.8 |
| C/C=C/C=O [Crotonaldehyde] | 17.4 |
| CC(C)=O [Acetone] | 39.3 |
| O=CC=O [Glyoxal] | 3.5 |
| Cc1ccccc1O [o-Cresol] | 3.12 |
| Cc1cccc(O)c1 [m-Cresol] | 3.46 |

same assay, conditions: Pseudomonas putida, KT2440, effective concentration that decreases the growth rate by 50%; M9 medium with 20 mM glucose, 30° C.

| SMILES | EC50 [mM] |
| --- | --- |
| Oc1ccccc1 [Phenol] | 9.24 |
| C=O [Formaldehyde] | ~2 |

same assay, conditions: Pseudomonas putida, KT2440, effective concentration that decreases the growth rate by 50%; M9 medium with 20 mM glucose, 30° C.; read-out: EC50

| SMILES | EC50 [mM] |
| --- | --- |
| COc1cccc(OC)c1O [Syringol] | 4.21 |
| CC(=O)O [Acetic acid] | 64.1 |
| C=C(CC(=O)O)C(=O)O [Itaconic acid] | 89.4 |
| O=Cc1ccoc1 [3-Furancarboxaldehyde] | 13.9 |
| COc1ccccc1O [Guaiacol] | 13.3 |
| CCCC(=O)O [Butanoic acid] | 35.2 |
| Cc1ccc(O)cc1 [p-Cresol] | 2.25 |
| O=Cc1ccc(CO)o1 [5-HMF, 5-(Hydroxymethyl)furfural] | 14.3 |
| CCC(=O)O [Propionic acid] | 22.4 |
| O=CCO [Glycolaldehyde] | ~2 |
| Cc1ccc(C)c(O)c1 [2,5-Xylenol] | 2.52 |
| O=Cc1ccco1 [Furfural] | 21 |
| CCC(=O)CO [2-Oxobutanol] | 27.8 |
| CC1=CCOC1=O [2-Methyl-butenolide] | 5.02 |
| COc1cc(C=O)ccc1O [Vanillin] | 6.34 |
| O=C1C=CCO1 [2-Butenolide] | 7.77 |

same assay, conditions: effective concentration that decreases the growth rate by 50%; M9 medium with 20 mM glucose, 30° C.

| SMILES | EC50 [mM] |
| --- | --- |
| C=O [Formaldehyde] | 2.07 |

same assay, conditions: effective concentration that decreases the growth rate by 50%; M9 medium with 20 mM glucose, 30° C.; read-out: EC50

| SMILES | EC50 [mM] |
| --- | --- |
| Cc1ccc(C=O)o1 [5-methylfufaral] | 15 |
| CC(=O)CO [Acetol] | 12.4 |
| O=CCO [Glycolaldehyde] | 2.14 |
| O=C1CCCC1 [Adipic ketone] | 9.8 |

system: GFP-expressing strain of P. putida KT2440; experiment: GFP immunoblot of cell-free extract after GA or FPF treatment; type: cell-based, Pseudomonas putida; conditions: GA (2 mM) or FPF (0.05% (v/v))
Excerpt: Aldehydes, the key toxic component of the FPF stream, can confer molecular toxicity via protein damage. Indeed, GA, the major aldehyde present in FPF is a well-known post-translational protein-damaging agent. […] Cell-free extract from these conditions was immunoblotted to detect the presence of GFP. […] Furthermore, GFP inclusion bodies formed in cells treated with GA or FPF, which might be due to misfolding or cross-linking of the GFP protein. […] Thus, in an embodiment, overexpression of chaperones to rescue damaged or misfolded proteins was chosen as a strategy to enhance the tolerance of P. putida to FPF.
The fate of GFP in the LJ014 strain after treatment with FPF was then examined.

| SMILES | free-GFP level relative to the untreated controls [%] |
| --- | --- |
| O=CCO [Glycolaldehyde] | 46.8 |

From patent US10829731B2, “Biocatalysts for conversion of thermochemical waste streams” (Alliance for Sustainable Energy, LLC, priority 2018, dated 2020)
